# Patent US6518268B1, “Telomerase inhibitors and methods of their use” (Geron Corporation, priority 1999, dated 2003)
# Columns and labels:
# [1] = target: T1, telomerase in human renal carcinoma cell line ACHN (Homo sapiens, UniProt O14746); experiment: Telomerase activity in extract of agent-treated ACHN cells (TRAP assay); assay type: cell-based; conditions: contact 3 days
# T1 construct: human renal carcinoma cell line ACHN for 3 days, and then a cell extract was prepared; endogenous in cells; host or cells: ACHN human renal carcinoma cells; CHAPS extract after 3 days of treatment
# T1 sequence (O14746 whole entry): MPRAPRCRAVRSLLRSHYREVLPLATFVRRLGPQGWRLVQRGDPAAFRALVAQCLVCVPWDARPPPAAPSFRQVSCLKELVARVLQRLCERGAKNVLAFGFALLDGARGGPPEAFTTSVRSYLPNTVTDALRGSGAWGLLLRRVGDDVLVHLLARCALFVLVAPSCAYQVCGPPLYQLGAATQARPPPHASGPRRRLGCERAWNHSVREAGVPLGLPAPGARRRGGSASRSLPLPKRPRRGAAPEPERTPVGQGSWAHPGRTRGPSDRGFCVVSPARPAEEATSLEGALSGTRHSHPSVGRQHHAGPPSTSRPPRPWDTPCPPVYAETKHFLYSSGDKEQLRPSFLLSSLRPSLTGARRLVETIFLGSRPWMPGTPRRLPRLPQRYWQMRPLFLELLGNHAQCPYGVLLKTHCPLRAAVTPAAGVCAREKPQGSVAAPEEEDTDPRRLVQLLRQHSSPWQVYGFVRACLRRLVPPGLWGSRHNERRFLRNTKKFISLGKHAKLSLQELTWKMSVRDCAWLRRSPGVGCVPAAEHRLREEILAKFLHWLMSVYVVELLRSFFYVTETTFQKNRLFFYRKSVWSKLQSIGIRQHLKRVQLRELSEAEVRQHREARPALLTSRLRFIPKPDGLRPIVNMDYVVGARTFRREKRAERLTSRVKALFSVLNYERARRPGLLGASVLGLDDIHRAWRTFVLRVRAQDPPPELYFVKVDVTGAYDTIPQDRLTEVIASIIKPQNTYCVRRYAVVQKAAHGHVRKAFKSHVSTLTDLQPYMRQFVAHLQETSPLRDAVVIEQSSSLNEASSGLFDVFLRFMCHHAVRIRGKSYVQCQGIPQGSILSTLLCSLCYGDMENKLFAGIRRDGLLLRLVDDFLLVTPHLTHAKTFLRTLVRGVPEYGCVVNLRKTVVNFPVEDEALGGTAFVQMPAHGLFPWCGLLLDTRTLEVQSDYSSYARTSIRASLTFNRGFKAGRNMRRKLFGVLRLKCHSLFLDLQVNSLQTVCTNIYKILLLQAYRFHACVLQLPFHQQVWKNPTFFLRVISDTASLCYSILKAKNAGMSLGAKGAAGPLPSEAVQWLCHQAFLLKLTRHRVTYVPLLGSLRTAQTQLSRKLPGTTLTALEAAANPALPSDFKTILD
# T1 sequence (O60832 whole entry partner): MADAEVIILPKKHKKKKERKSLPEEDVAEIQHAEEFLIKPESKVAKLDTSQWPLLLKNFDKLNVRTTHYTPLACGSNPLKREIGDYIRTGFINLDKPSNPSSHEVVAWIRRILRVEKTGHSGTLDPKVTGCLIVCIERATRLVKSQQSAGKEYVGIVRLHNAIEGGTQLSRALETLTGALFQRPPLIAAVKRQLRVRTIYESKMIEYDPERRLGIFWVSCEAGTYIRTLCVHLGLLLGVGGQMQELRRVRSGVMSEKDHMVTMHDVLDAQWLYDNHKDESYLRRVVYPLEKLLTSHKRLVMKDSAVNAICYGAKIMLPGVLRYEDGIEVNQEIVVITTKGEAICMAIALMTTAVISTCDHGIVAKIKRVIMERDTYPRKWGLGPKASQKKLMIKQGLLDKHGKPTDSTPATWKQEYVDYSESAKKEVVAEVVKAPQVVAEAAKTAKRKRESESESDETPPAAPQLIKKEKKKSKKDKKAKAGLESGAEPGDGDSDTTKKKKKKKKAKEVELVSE
# T1 sequence (Q9NPE3 whole entry partner): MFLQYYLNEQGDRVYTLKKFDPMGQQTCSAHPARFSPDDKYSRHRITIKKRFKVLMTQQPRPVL
# T1 sequence (Q9NX24 whole entry partner): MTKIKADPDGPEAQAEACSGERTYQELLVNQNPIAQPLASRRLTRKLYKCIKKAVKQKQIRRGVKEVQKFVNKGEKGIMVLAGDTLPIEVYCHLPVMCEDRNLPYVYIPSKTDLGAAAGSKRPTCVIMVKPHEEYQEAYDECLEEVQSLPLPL
# T1 sequence (Q9NY12 whole entry partner): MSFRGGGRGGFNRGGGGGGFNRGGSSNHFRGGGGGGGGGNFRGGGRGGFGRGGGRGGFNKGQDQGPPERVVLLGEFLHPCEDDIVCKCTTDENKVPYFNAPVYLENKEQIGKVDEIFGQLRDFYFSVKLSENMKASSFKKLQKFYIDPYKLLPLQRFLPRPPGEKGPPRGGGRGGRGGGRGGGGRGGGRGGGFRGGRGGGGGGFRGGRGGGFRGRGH
# Experimental: That is, a cell extract was prepared using a buffer solution containing 0.5% CHAPS. Using the extract, TRAP (Telomeric Repeat Amplification Protocol) assay was carried out in vitro (TRAPEZE™ ELISA Telomerase Detection Kit, manufactured by Intergen). The ratio (%) of the enzyme activity in the extract from agent-treated cells to the enzyme activity in the extract from agent-untreated cells was calculated.
# [2] = target: T2, partially purified telomerase from a nuclear extract of HEK293 cells (Homo sapiens, UniProt O14746); experiment: In vitro telomerase inhibition, membrane hybridization method (U.S. Pat. No. 5,760,062); assay type: biochemical; conditions: for IC50: partially purified telomerase from nuclear extract of HEK293 cells; for residual activity of in vitro telomerase activity (in parenthesis): in the presence of the compound at a concentration of 10 μm
# T2 construct: partially purified telomerase from a nuclear extract of HEK293 cells; endogenous in cells; host or cells: HEK293 cells, nuclear extract, partially purified
# T2 sequence (O14746 whole entry): as the sequence (O14746 whole entry) above
# T2 sequence (O60832 whole entry partner): as the sequence (O60832 whole entry partner) above
# T2 sequence (Q9NPE3 whole entry partner): as the sequence (Q9NPE3 whole entry partner) above
# T2 sequence (Q9NX24 whole entry partner): as the sequence (Q9NX24 whole entry partner) above
# T2 sequence (Q9NY12 whole entry partner): as the sequence (Q9NY12 whole entry partner) above
# Experimental: Alternatively, telomerase inhibitory activity of the compounds was measured in accordance with a known method (U.S. Pat. No. 5,760,062). That is, a dimethyl sulfoxide (DMSO) solution of each agent was mixed with partially purified telomerase from a nuclear extract of HEK293 cells and incubated in the presence of an oligodeoxynucleotide to be used as the substrate and deoxynucleotide triphosphate. The obtained reacted product (DNA having a telomere sequence) was adsorbed on a membrane, and hybridization was carried out using a labeled oligonucleotide probe having a sequence complementary to the telomere sequence. The inhibition ratio was calculated based on the ratio of the signal of label on the membrane in the presence of the agent to the signal of label in the absence of the agent (control). Also, concentration of each agent which inhibits 50% of the enzyme activity based on the control was used as IC50.
Compound,IC50 [2] [µM],other results
Cc1ccc(Sc2ccc([N+](=O)[O-])cc2C=C2SC(=O)NC2=O)cc1 [Compound 1],21,Residual Enzyme Activity (%) ([1]; concentration 30 μM): 11%
CC(=O)Nc1ccc(Sc2ccc(C)cc2)c(C=C2SC(=O)NC2=O)c1 [Compound 3],–,Residual Enzyme Activity (%) ([1]; concentration 100 μM): 0%
Cc1ccc(Sc2ccc(C=C3SC(=O)NC3=O)cc2[N+](=O)[O-])cc1 [Compound 9],8.3,–
O=C1NC(=O)C(=Cc2cccc(Oc3ccccc3)c2)S1 [Compound 11],–,Residual Enzyme Activity (%) ([1]; concentration 100 μM): 50%
O=C1NC(=O)C(=Cc2cccc(Oc3ccc(Cl)c(Cl)c3)c2)S1 [Compound 13],5.9,–
O=C1NC(=O)C(=Cc2cc([N+](=O)[O-])ccc2OCc2ccc(Cl)c(Cl)c2)S1 [Compound 17],10,–
Cc1ccc(COc2ccc([N+](=O)[O-])cc2C=C2SC(=O)NC2=O)cc1 [Compound 18],11,–
Cc1ccc(COc2cc(C=C3SC(=O)NC3=O)ccc2[N+](=O)[O-])cc1 [Compound 19],70,–
Cc1ccc(COc2ccc(C=C3SC(=O)NC3=O)cc2[N+](=O)[O-])cc1 [Compound 20],9,–
Cc1ccc(COc2ccccc2C=C2SC(=O)NC2=O)cc1 [Compound 22],–,Residual Enzyme Activity (%) ([1]; concentration 100 μM): 33%
COc1ccc(OCc2ccc(C)cc2)c(C=C2SC(=O)NC2=O)c1 [Compound 23],14,–
Cc1ccc(COc2ccc(Cl)cc2C=C2SC(=O)NC2=O)cc1 [Compound 24],5.3,–
Cc1ccc(COc2ccc(Br)cc2C=C2SC(=O)NC2=O)cc1 [Compound 25],4.2,–
O=C1NC(=O)C(=Cc2ccc(N(c3ccccc3)c3ccccc3)cc2)S1 [Compound 26],4.2,–
O=C1NC(=O)C(=Cc2ccc(C(=O)c3ccccc3)cc2)S1 [Compound 31],15,–
O=C1NC(=O)C(=Cc2ccc(Cc3ccccc3)cc2)S1 [Compound 32],21,–
O=C1NC(=O)C(=Cc2ccc(C(O)(c3ccccc3)c3ccccc3)cc2)S1 [Compound 33],5.5,–
O=C1NC(=O)C(=Cc2ccc(CN(c3ccccc3)c3ccccc3)cc2)S1 [Compound 35],3.9,–
O=C1NC(=O)C(=Cc2ccc(N(Cc3ccccc3)Cc3ccccc3)cc2)S1 [Compound 36],5.1,–
Cc1ccc(Sc2ccc([N+](=O)[O-])cc2C=C2SC(=S)NC2=O)cc1 [Compound 38],–,Residual Enzyme Activity (%) ([1]; concentration 30 μM): 36%
O=C1NC(=O)C(=Cc2cc(Br)sc2Sc2ccc(Cl)cc2)S1 [Compound 43],2.6,–
O=C1NC(=O)C(=Cc2cc(-c3ccccc3)sc2Sc2ccc(Cl)cc2)S1 [Compound 44],1.9,–
Cc1ccc(COc2ccc(-c3ccccc3)cc2C=C2SC(=O)NC2=O)cc1 [Compound 47],4.1,–
Cc1ccc(COc2ccc(-c3cccs3)cc2C=C2SC(=O)NC2=O)cc1 [Compound 48],1.6,–
O=C1NC(=O)C(=Cc2ccc(N(c3ccc(CO)cc3)c3ccc(CO)cc3)cc2)S1 [Compound 49],4.4,–

Compound,IC50 [2] [µM],other results
O=C1NC(=O)C(=Cc2cc(C(=O)O)sc2Sc2ccc(Cl)cc2)S1 [Compound 53],0.77,–
O=C1NC(=O)C(=Cc2cc(C(=O)Nc3ccccc3)sc2Sc2ccc(Cl)cc2)S1 [Compound 55],5.3,–
COC(=O)c1cc(C=C2SC(=O)NC2=O)c(Sc2ccc(Cl)cc2)s1 [Compound 58],–,residual activity of in vitro telomerase activity (in parenthesis) [2]: (56%)
O=C1NC(=O)C(=Cc2sccc2Oc2ccccc2)S1 [Compound 59],2.1,–
O=C1NC(=O)C(=Cc2cc(Sc3ccc(Cl)cc3)cs2)S1 [Compound 60],4.5,–
O=C1NC(=O)C(=Cc2cc(Sc3ccc(Cl)cc3)c(Sc3ccc(Cl)cc3)s2)S1 [Compound 61],0.33,–
O=C1NC(=O)C(=Cc2ccc(Sc3ccc(Cl)cc3)s2)S1 [Compound 62],7.8,–
O=C1NC(=O)C(=Cc2cc(Br)c(Sc3ccc(Cl)cc3)s2)S1 [Compound 63],6.5,–
O=C1NC(=O)/C(=C/c2cc(Br)c([S+]([O-])c3ccc(Cl)cc3)s2)S1 (stereo not drawn) [Compound 64],9.7,–
O=C1NC(=O)C(=Cc2cc(C(=O)c3ccc(Cl)cc3)c(Sc3ccc(Cl)cc3)s2)S1 [Compound 65],6.2,–
O=C1NC(=O)C(=Cc2cc([N+](=O)[O-])ccc2Sc2ccc(Cl)cc2)S1 [Compound 67],1,–
O=C1NC(=O)C(=Cc2cc([N+](=O)[O-])ccc2Sc2cccc(Cl)c2)S1 [Compound 70],4.8,–
O=C1NC(=O)C(=Cc2cc([N+](=O)[O-])ccc2Sc2ccccc2Cl)S1 [Compound 71],2.7,–
O=C1NC(=O)C(=Cc2cc([N+](=O)[O-])ccc2Sc2ccc(Cl)c(Cl)c2)S1 [Compound 72],4.3,–
O=C1NC(=O)C(=Cc2cc([N+](=O)[O-])ccc2Sc2ccc(Br)cc2)S1 [Compound 73],7,–
COc1ccc(Sc2ccc([N+](=O)[O-])cc2C=C2SC(=O)NC2=O)cc1 [Compound 74],3.7,–
O=C1NC(=O)C(=Cc2cc([N+](=O)[O-])ccc2SCc2ccccc2)S1 [Compound 76],3.9,–
O=C1NC(=O)C(=Cc2cc([N+](=O)[O-])ccc2SCc2ccc(Cl)cc2)S1 [Compound 79],3.5,–
O=C1NC(=O)C(=Cc2ccc(Sc3ccc(Br)cc3)c([N+](=O)[O-])c2)S1 [Compound 80],5.5,–
O=C1NC(=O)C(=Cc2cc([N+](=O)[O-])ccc2SC2CCCCC2)S1 [Compound 84],3.9,–
Cc1ccc(Sc2ccc(Br)cc2C=C2SC(=O)NC2=O)cc1 [Compound 87],6.9,–
Cc1ccc(Sc2ccc(-c3ccco3)cc2C=C2SC(=O)NC2=O)cc1 [Compound 90],3.7,–
Cc1ccc([S+]([O-])c2ccc(-c3ccco3)cc2C=C2SC(=O)NC2=O)cc1 (stereo not drawn) [Compound 91],–,residual activity of in vitro telomerase activity (in parenthesis) [2]: (61%)
Cc1ccc([S+]([O-])c2ccc(-c3cccs3)cc2C=C2SC(=O)NC2=O)cc1 (stereo not drawn) [Compound 93],–,residual activity of in vitro telomerase activity (in parenthesis) [2]: (55%)
Cc1ccc(Sc2ccc(C#N)cc2C=C2SC(=O)NC2=O)cc1 [Compound 94],7.8,–

Compound,IC50 [2] [µM],other results
Cc1ccc(Sc2ccc(CO)cc2C=C2SC(=O)NC2=O)cc1 [Compound 96],–,residual activity of in vitro telomerase activity (in parenthesis) [2]: (62%)
Cc1ccc(Sc2cccc(C(F)(F)F)c2C=C2SC(=O)NC2=O)cc1 [Compound 99],6.9,–
Cc1ccc(Sc2ccc(C(F)(F)F)cc2C=C2SC(=O)NC2=O)cc1 [Compound 100],4.4,–
Cc1ccc(Sc2cc(C(F)(F)F)ccc2C=C2SC(=O)NC2=O)cc1 [Compound 101],–,residual activity of in vitro telomerase activity (in parenthesis) [2]: (62%)
COc1ccc(Sc2ccc(C)cc2)c(C=C2SC(=O)NC2=O)c1 [Compound 104],–,residual activity of in vitro telomerase activity (in parenthesis) [2]: (61%)
Cc1ccc(Sc2ccc(Cl)cc2C=C2SC(=O)NC2=O)cc1 [Compound 106],4.5,–
O=C1NC(=O)C(=Cc2cc([N+](=O)[O-])ccc2Oc2ccccc2)S1 [Compound 110],–,residual activity of in vitro telomerase activity (in parenthesis) [2]: (53%)
O=C1NC(=O)C(=Cc2cc([N+](=O)[O-])ccc2Sc2ccc(C(F)(F)F)cc2)S1 [Compound 115],2.7,–
O=C1NC(=O)C(=Cc2ccc(N(Cc3ccccc3)c3ccccc3)cc2)S1 [Compound 121],4,–
O=C1NC(=O)C(=Cc2cc([N+](=O)[O-])ccc2SCCO)S1 [Compound 122],7.7,–
CCCN(CCC)c1ccc([N+](=O)[O-])cc1C=C1SC(=O)NC1=O [Compound 123],6.9,–
O=C1NC(=O)C(=Cc2cc([N+](=O)[O-])ccc2N2CCCCC2)S1 [Compound 124],–,residual activity of in vitro telomerase activity (in parenthesis) [2]: (54%)
O=C1NC(=O)C(=Cc2cc([N+](=O)[O-])ccc2N2CCOCC2)S1 [Compound 125],1.6,–
COc1cc(O)ccc1C=C1SC(=O)NC1=O [Compound 126],1.3,–
O=C1NC(=O)C(=Cc2ccccc2OC(F)(F)F)S1 [Compound 127],5.7,–
O=C1NC(=O)/C(=C/c2c3ccccc3c(Sc3ccc(Cl)cc3)c3ccccc23)S1 [Compound 128],2.6,–
O=C1NC(=O)C(=Cc2cc([N+](=O)[O-])ccc2Sc2ccc(C(=O)O)cc2)S1 [Compound 129],8.1,–
CSc1ccc(Sc2ccc([N+](=O)[O-])cc2C=C2SC(=O)NC2=O)cc1 [Compound 132],2.6,–
Cc1ccc(Sc2ccc(C=C3SC(=O)NC3=O)cc2Oc2ccccc2)cc1 [Compound 137],5.5,–
COc1cc(C=C2SC(=O)NC2=O)ccc1Sc1ccc(C)cc1 [Compound 138],4.3,–
Cc1ccc(Sc2ccc(C(=O)OCc3ccccc3)cc2C=C2SC(=O)NC2=O)cc1 [Compound 139],4.4,–
O=C1NC(=O)C(=Cc2cc([N+](=O)[O-])ccc2Sc2ccc3ccccc3c2)S1 [Compound 171],7.2,–
"CCc1ccc(CCOc2ccc(CC3SC(=O)NC3=O)cc2)nc1 (stereo not drawn) [Pioglitazone, pioglitazone, reference compound]",83,–
"Cc1c(C)c2c(c(C)c1O)CCC(C)(COc1ccc(CC3SC(=O)NC3=O)cc1)O2 (stereo not drawn) [Troglitazone, troglitazone, reference compound]",16,–
